The text below walks through data of patent US9453849B2, “Methods for staining cells for identification and sorting” (PREMIUM GENETICS (UK) LIMITED, priority 2005, dated 2016).

One data set deals with DNA. The conditions noted are these: cited from earlier work.
A further data set deals with cell membranes. The conditions noted are these: not told; cited from earlier work.

Like-named read-outs stand apart in the source and are kept apart here.

Source text for Bovine sperm: A sample cell was formed by two parallel glass slides coated with 1,500-2000 angstroms (Å) of indium tin oxide (ITO). The slides were separated by fragments of number zero glass cover slips, yielding a slide separation of 100 millimeters (mm).
The sample cell was connected to a resistor-capacitator (RC) circuit by alligator clips. A direct current (DC) power supply was used to charge a capacitor. When a switch was thrown, the discharging capacitor generated a time-dependant and spatially uniform electric field across the sample. An oscilloscope was used to monitor the voltage across the sample cell as a function of time.
The RC circuit formed by the sample cell and capacitor allowed for a well-controlled electric field to be generated. The resistance (R) of the circuit was left floating—that is, determined by the geometry and content of the sample cell. Typical R values ranged from 2-10,000 watts (W) depending primarily on the electrical conductivity of the buffer. The capacitance was varied from 0.1 millifarads (mF) to 1000 mF.
Bovine sperm that had been previously frozen were thawed for 60 seconds in a 96° F. water bath. Sperm were then centrifuged at 2,000 rotations per minute (rpm) for two minutes and the supernatant decanted. Sperm were then re-suspended with 0.35 M sucrose to partially dehydrate the sperm. The sperm solution was then incubated at 96° F. for 15 minutes and then transferred to the sample cell of the electroporation unit.
A voltage was applied to the capacitor circuit, and then the power supply was disconnected. A switch was then thrown and the capacitor discharged across the sample cell. These steps were carried out within 15 seconds of transferring the sperm to the sample cell to retain a random orientation of sperm with respect to the electric field. Electroporation was carried out on sperm in isotonic (0.25 M sucrose) and hypertonic (0.35 M sucrose) solutions. In each case, 10 V was applied to the capacitor and a time constant of 0.26 milliseconds (ms) measured.
A solution of 0.1 M sucrose and the DNA-specific dye, propidium iodide, was then injected into the sample cell. Fluorescence microscopy is used to image the sperm.
To distinguish fluorescent dead cells from fluorescent live cells, sperm motility was assessed.

Turning to `Cc1c2oc3c(C)c(N)cc(C(=O)N[C@@H]4C(=O)N[C@H](C(C)C)C(=O)N5CCC[C@H]5C(=O)N(C)CC(=O)N(C)[C@@H](C(C)C)C(=O)O[C@@H]4C)c3nc-2c(C(=O)N[C@@H]2C(=O)N[C@H](C(C)C)C(=O)N3CCC[C@H]3C(=O)N(C)CC(=O)N(C)[C@@H](C(C)C)C(=O)O[C@@H]2C)c(N)c1=O` [7-AAD (7-amino-actinomycin D), 7-amino-actinomycin D], the “base selectivity (Applications)” value with DNA was “GC-selective”.
With `COc1ccc2nc3cc(Cl)ccc3c(N)c2c1` [ACMA, 9-amino-6-chloro-2-methoxyactridine], the “base selectivity (Applications)” value in the data set on DNA is recorded as “AT-selective”.
As for `COc1ccc2nc3cc(Cl)ccc3c(NCCCNCCCCNCCCNc3c4ccc(Cl)cc4nc4ccc(OC)cc34)c2c1` [Acridine homodimer], in the data set on DNA, the “DNA affinity (Applications)” value was “High-affinity DNA binding” and the “base selectivity (Applications)” value was “AT-selective”. The “permeability to cell membranes (Applications)” value (shortened to “permeability to cell membranes”) in the data set with cell membranes is reported as “Impermeant”.
Take `N=C(N)c1ccc(-c2cc3ccc(C(=N)N)cc3[nH]2)cc1` [DAPI]: in the data set on DNA, the “base selectivity (Applications)” value is on record as “AT-selective”. Besides, the “permeability to cell membranes” value in the data set with cell membranes is listed as “Semi-permeant”.
For the compound `CN1CCN(c2ccc3nc(-c4ccc5nc(-c6ccc(N(C)C)cc6)[nH]c5c4)[nH]c3c2)CC1` [Hoechst 34580], in the data set on DNA, the “base selectivity (Applications)” value is “AT-selective” and the “dsDNA selectivity (Applications)” value is “dsDNA-selective binding”.
With `CC[n+]1c(/C=C/C=C/c2ccc(N(C)C)cc2)ccc2cc(N(C)C)ccc21.[O-][Cl+3]([O-])([O-])[O-]` [LDS 751], the “permeability to cell membranes” value with cell membranes was “Permeant”.
Consider `CC[N+](C)(CC)CCC[n+]1c(-c2ccccc2)c2cc(N)ccc2c2ccc(N)cc21.[I-].[I-]` [propidium iodide], for which the “increase in the number of damaged and non-motile sperm” value with Bovine sperm is 68%. Further, in the data set on Bovine sperm, the “loss of motile sperm compared to the control” value is 70%. Also, the “motile and fluorescent sperm” value in the data set on Bovine sperm (control samples unexposed to electric fields) was “did not yield motile and fluorescent sperm”; in the data set with Bovine sperm (electroporated, 10 V, time constant 0.26 ms, hypertonic/hypotonic solution (0.35 M sucrose, then 0.1 M sucrose with dye)), “motile and fluorescent sperm were observed”; in the data set on Bovine sperm (electroporated, 10 V, time constant 0.26 ms, isotonic solution (0.25 M sucrose)) it was “motile and fluorescent sperm were observed”. In addition, the “enhancement of the number of motile and fluorescent sperm” value in the data set with Bovine sperm (hypertonic/hypotonic solution compared with isotonic solution) is on record as “approximately five-ten”. For the same compound, the “fluorescence of observed motile sperm” value with Bovine sperm (hypertonic/hypotonic solution exposed to the electric field) is “displayed fluorescence”. Besides, the “permeability to cell membranes” value in the data set on cell membranes is listed as “Impermeant”.
Take “Ethidium homodimer-1 [Ethidium homodimer-1 (EthD-1)]”: the “DNA affinity (Applications)” value in the data set with DNA is given as “High-affinity DNA labeling”.
As for “Ethidium homodimer-2 [Ethidium homodimer-2 (EthD-2)]”, in the data set on DNA, the “DNA affinity (Applications)” value is on record as “Very high-affinity DNA labeling”.
